In BindingDB's records for doi:10.7270/Q2WW7G03 (The Scripps Research Institute Molecular Screening Center, 2007):

Target: T1, 5-hydroxytryptamine receptor 1A (Homo sapiens, UniProt P08908)
T1 sequence (P08908 whole entry): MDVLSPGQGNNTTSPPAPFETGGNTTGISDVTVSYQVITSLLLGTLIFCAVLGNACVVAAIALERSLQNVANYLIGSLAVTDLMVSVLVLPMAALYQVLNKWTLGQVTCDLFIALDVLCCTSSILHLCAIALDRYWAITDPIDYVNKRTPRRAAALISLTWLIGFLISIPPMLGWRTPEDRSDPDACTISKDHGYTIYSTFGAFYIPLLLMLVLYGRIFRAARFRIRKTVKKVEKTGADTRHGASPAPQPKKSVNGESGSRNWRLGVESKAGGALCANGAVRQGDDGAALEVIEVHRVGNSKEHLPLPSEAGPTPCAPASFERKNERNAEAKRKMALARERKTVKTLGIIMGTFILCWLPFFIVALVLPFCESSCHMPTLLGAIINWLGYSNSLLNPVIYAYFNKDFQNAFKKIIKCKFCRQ
Experiment: serotonin 1A receptor activation, dose response (AID 718)
Conditions: pH 7.4; 23 °C

Row | EC50 | SMILES
1 | 50 µM | CN1CCN(C(N=O)c2nonc2N)CC1 (stereo not drawn)
2 | 50 µM | Cn1cc(C(Cc2ccccc2)N=O)c2ccccc21 (stereo not drawn) [1-(1-methyl-3-indolyl)-2-phenylethanone oxime]
3 | 50 µM | CCOC(=O)C1C(C)=NC(=O)NC1c1ccc(OCC(=O)Nc2ccccc2)c(OC)c1 (stereo not drawn) [SMR000093032]
